Patent US20240368125A1, “NOVEL PYRAZINYL-TRIAZOLE COMPOUNDS AS PESTICIDES” (Bayer Aktiengesellschaft, priority 2021, published 2024)

Columns and labels:
Type in all cases: in vivo
[1] = test system: Rhipicephalus (Boophilus) microplus larvae (strain Parkhurst, resistant against synthetic pyrethroids); test: Rhipicephalus (Boophilus) microplus in-vitro contact test, larval cattle tick; conditions: 1 μg/cm^2 (=100 g/ha), after 48 hours; for pest or weed control at 1 µg/cm2: Rhipicephalus microplus, read-out: efficacy (larvae dead or moribund)
Procedure: Rhipicephalus (Boophilus) Microplus—In-Vitro Contact Tests Larval Cattle Tick (Strain Parkhurst, Resistant Against Synthetic Pyrethroids
(§1) 9 mg compound is solved in 1 mL acetone and diluted with acetone to the desired concentration. 250 μL of the test solution is filled in 25 mL glass test tubes and homogeneously distributed on the inner walls by rotation and tilting on a shaking device (2 h at 30 rpm). With a compound concentration of 900 ppm, an inner surface of 44.7 cm^2 and a homogeneous distribution, a dose of 5 μg/cm^2 is achieved.
After the solvent has evaporated, each test tube is filled with 20-50 cattle tick larvae (Rhipicephalus microplus), closed with a perforated lid and incubated in a horizontal position at 85% relative humidity and 27° C. in an incubator. After 48 hours efficacy is determined. The larvae are patted on the ground of the tubes and negative geotactic behavior is recorded.

[2] = test system: green peach aphid (Myzus persicae); test: Myzus persicae spray test (MYZUPE); conditions: 120 h; for mortality at 100 g/ha: in Brassica rapa, foliar
Procedure: Myzus persicae—Spray Test
(§2) Solvent: 78.0 parts by weight acetone • 1.5 parts by weight dimethylformamide
(§3) Emulsifier: alkylarylpolyglycol ether
(§4) To produce a suitable preparation of active compound, 1 part by weight of active compound is mixed with the stated amount of solvents and is diluted with water, containing an emulsifier concentration of 1000 ppm, to the desired concentration. Further test concentrations are prepared by dilution with emulsifier containing water.
Chinese cabbage (Brassica pekinensis) leaf disks infected with all instars of the green peach aphid (Myzus persicae), are sprayed with a preparation of the active ingredient of the desired concentration.
After 5 days mortality in % is determined. 100% means all aphids have been killed and 0% means none of the aphids have been killed.
Myzus persicae—Spray Test (MYZUPE
After the specified period of time, mortality in % is determined. 100% means all aphids have been killed and 0% means none of the aphids have been killed.

[3] = test system: adult cat fleas (Ctenocephalides felis); test: Ctenocephalides felis in-vitro contact test, adult cat flea; conditions: Ctenocephalides felis; 1 μg/cm^2 (=100 g/ha), after 48 hours; read-out: efficacy (fleas dead or moribund)
Procedure: Ctenocephalides Felis—In-Vitro Contact Tests Adult Cat Flea
as §1
After the solvent has evaporated, each test tube is filled with 5-10 adult cat fleas (Ctenocephalides felis), closed with a perforated lid and incubated in a lying position at room temperature and relative humidity. After 48 hours efficacy is determined. The fleas are patted on the ground of the tubes and are incubated on a heating plate at 45-50° C. for at most 5 minutes. Immotile or uncoordinated moving fleas, which are not able to escape the heat by climbing upwards, are marked as dead or moribund.
An efficacy of 100% means all fleas are dead or moribund; 0% means no fleas are dead or moribund.

[4] = test system: adult brown dog ticks (Rhipicephalus sanguineus); test: Rhipicephalus sanguineus in-vitro contact test, adult brown dog ticks; conditions: Rhipicephalus sanguineus; 1 μg/cm^2 (=100 g/ha), after 48 hours; read-out: efficacy (ticks dead or moribund)
Procedure: Rhipicephalus sanguineus—In-Vitro Contact Tests with Adult Brown Dog Ticks
as §1
After the solvent has evaporated, each test tube is filled with 5-10 adult brown dog ticks (Rhipicephalus sanguineus), closed with a perforated lid and incubated in a lying position at room temperature and relative humidity. After 48 hours efficacy is determined. The ticks are patted on the ground of the tubes and are incubated on a heating plate at 45-50° C. for at most 5 minutes. Immotile or uncoordinated moving ticks, which are not able to escape the heat by climbing upwards, are marked as dead or moribund.
An efficacy of 100% means all ticks are dead or moribund; 0% means no ticks are dead or moribund.

[5] = test system: larvae of the southern green stink bug (Nezara viridula); test: Nezara viridula spray test; conditions: for mortality at 500 g/ha: Nezara viridula, in Hordeum vulgare, 96 h; for mortality: 500 g/ha, barley plants, after 4 days
Procedure: Nezara viridula—Spray Test
(§5) Solvent: 78.0 parts by weight of acetone • • 1.5 parts by weight of dimethylformamide
as §3
(§6) To produce a suitable preparation of active compound, 1 part by weight of active compound is mixed with the stated amount of solvent, and the concentrate is diluted with water, containing an emulsifier concentration of 1000 ppm, to the desired concentration. Further test concentrations are prepared by dilution with emulsifier containing water.
Barley plants (Hordeum vulgare) are sprayed with a test solution containing the desired concentration of the active ingredient and are infested with larvae of the southern green stink bug (Nezara viridula).
After 4 days mortality in % is determined. 100% means all the stink bugs have been killed; 0% means none of the stink bugs have been killed.

[6] = test system: fall armyworm larvae (Spodoptera frugiperda); test: Spodoptera frugiperda spray test (SPODFR); conditions: 168 h; for mortality at 100 g/ha: in Zea mays
Procedure: Spodoptera frugiperda—Spray Test
as §2, §3, §4
Maize (Zea mays) leaf sections are sprayed with a preparation of the active ingredient of the desired concentration. Once dry, the leaf sections are infested with fall armyworm larvae (Spodoptera frugiperda).
After 7 days mortality in % is determined. 100% means all caterpillars have been killed and 0% means none of the caterpillars have been killed.
Spodoptera frugiperda—Spray Test (SPODFR
After the specified period of time, mortality in % is determined. 100% means all caterpillars have been killed and 0% means none of the caterpillars have been killed.

[7] = test system: brown planthopper (Nilaparvata lugens); test: Nilaparvata lugens spray test; conditions: for mortality at 500 g/ha: Nilaparvata lugens, in Oryza sativa, 96 h; for mortality: 500 g/ha, rice plants, after 4 days
Procedure: Nilaparvata lugens—Spray Test
as §5, §3, §4
Rice plants (Oryza sativa) are sprayed with a preparation of the active ingredient of the desired concentration and the plants are infested with the brown planthopper (Nilaparvata lugens).
After 4 days mortality in % is determined. 100% means all planthoppers have been killed and 0% means none of the planthoppers have been killed.

[8] = test system: larvae of the banded cucumber beetle (Diabrotica balteata); test: Diabrotica balteata spray test; conditions: 100 g/ha (=32 μg/well), wheat seeds, after 7 days; for pest or weed control at 32 µg/disc, 100 g/ha: Diabrotica balteata, 168 h, read-out: efficacy (seedlings grown)
Procedure: Diabrotica balteata—Spray Test
as §5, §3, §6
Soaked wheat seeds (Triticum aestivum) are placed in a multiple well plate filled with agar and some water and are incubated for 1 day to germinate (5 seeds per well). The germinated wheat seeds are sprayed with a test solution containing the desired concentration of the active ingredient. Afterwards each unit is infected with 10-20 larvae of the banded cucumber beetle (Diabrotica balteata).
After 7 days efficacy in % is determined. 100% means all the seedlings have grown up like in the untreated, uninfected control; 0% means none of the seedlings have grown.

SMILES	pest or weed control at 1 µg/cm2 [1]	pest or weed control at 1 µg/cm2 [3]	pest or weed control at 1 µg/cm2, 100 g/ha [4]	mortality at 500 g/ha [5]	mortality at 100 g/ha [6]	pest or weed control at 32 µg/disc, 100 g/ha [8]	other results
CNC(=O)c1cnc(-n2nc(C)nc2[C@H](C)NC(=O)c2cc(C(F)(F)F)cc(C(F)(F)F)c2)cn1 [Example I-011]	100%	100%	100%	100%	100%		mortality at 100 g/ha [2]: 90%
C[C@H](NC(=O)c1cc(OC(F)(F)F)cc(S(C)(=O)=O)c1)c1ncnn1-c1cnc(C(=O)NC2CC2)cn1 [Example I-020]	100%			100%		100%	mortality at 500 g/ha [7]: 100%; mortality at 100 g/ha [2]: 100%
C[C@H](NC(=O)c1cc(OC(F)(F)F)cc(OC(F)(F)F)c1)c1ncnn1-c1cnc(C(=O)N(C)C2CC2)cn1 [Example I-026]	100%	100%	100%	100%	100%	100%	mortality at 500 g/ha [7]: 100%
C[C@H](NC(=O)c1cc(OC(F)(F)F)cc(S(C)(=O)=O)c1)c1ncnn1-c1cnc(C(N)=O)cn1 [Example I-028]	90%			100%	100%	100%	mortality at 100 g/ha [2]: 90%
C[C@H](NC(=O)c1cc(OC(F)(F)F)cc(OC(F)(F)F)c1)c1ncnn1-c1cnc(C(N)=O)cn1 [Example I-029]	100%	100%	100%		100%		
Cc1nc([C@H](C)NC(=O)c2cc(OC(F)(F)F)cc(OC(F)(F)F)c2)n(-c2cnc(C(=O)N(C)C3CC3)cn2)n1 [Example I-031]	100%	80%			100%		mortality at 500 g/ha [7]: 90%
Cc1nc([C@H](C)NC(=O)c2cc(OC(F)(F)F)cc(C3CC3)c2)n(-c2cnc(C(=O)N(C)C3CC3)cn2)n1 [Example I-032, N-Cyclopropyl-5-(5-{(1S)-1-[3-cyclopropyl-5-(trifluoromethoxy)benzamido]ethyl}-3-methyl-1H-1,2,4-triazol-1-yl)-N-methylpyrazine-2-carboxamide]	100%	100%	80%		100%		mortality at 500 g/ha [7]: 100%; mortality at 100 g/ha [2]: 90%
Cc1nc([C@H](C)NC(=O)c2cc(OC(F)(F)F)cc(OC(F)(F)F)c2)n(-c2cnc(C(N)=O)cn2)n1 [Example I-033]				100%	100%	100%	
CNC(=O)c1cnc(-n2nc(C)nc2[C@H](C)NC(=O)c2cc(OC(F)(F)F)cc(OC(F)(F)F)c2)cn1 [Example I-034]	100%		80%	100%	100%	80%	
Cc1nc([C@H](C)NC(=O)c2cc(C(F)(F)F)cc(S(C)(=O)=O)c2)n(-c2cnc(C(N)=O)cn2)n1 [Example I-051]							efficacy (larvae dead or moribund) [1]: 100%; mortality [5]: 90%
C[C@H](NC(=O)c1cc(F)cc(OC(F)(F)F)c1)c1ncnn1-c1cnc(C(N)=O)cn1 [Example I-068]							mortality [5]: 90%
Cc1nc([C@H](C)NC(=O)c2cc(F)cc(OC(F)(F)F)c2)n(-c2cnc(C(N)=O)cn2)n1 [Example I-069]							mortality [7]: 90%
C[C@H](NC(=O)c1cc(C(F)F)cc(C(F)F)c1)c1nc(C2CC2)nn1-c1cnc(C(N)=O)cn1 [Example I-071]							mortality [7]: 90%; mortality [5]: 90%; efficacy (seedlings grown) [8]: 100%
C[C@H](NC(=O)c1cc(OC(F)(F)F)cc(C2(C#N)CC2)c1)c1nc(C2CC2)nn1-c1cnc(C(N)=O)cn1 [Example I-072]							mortality [7]: 90%; mortality [5]: 90%; efficacy (seedlings grown) [8]: 100%
C[C@H](NC(=O)c1cc(C(F)F)nc(C(F)F)c1)c1nc(C2CC2)nn1-c1cnc(C(N)=O)cn1 [Example I-094, 5-[5-[(1S)-1-[[2,6-bis(difluoromethyl)pyridine-4-carbonyl]amino]ethyl]-3-cyclopropyl-1,2,4-triazol-1-yl]pyrazine-2-carboxamide]				100%	83%	100%	
C=C(CC)c1ccc(C2C=CC=C2[C@H](C)CC(=C)c2cc(C)cc(C(C)(C)C)c2)cc1 (stereo partly shown) [I-038 Known from WO2019206799, reference compound]							Emax at 4 g/ha ([2]; MYZUPE, 4 g ai/ha, 5 dat, read-out: % Efficacy): 0%; Emax at 20 g/ha ([2]; MYZUPE, 20 g ai/ha, 5 dat, read-out: % Efficacy): 70%; Emax at 100 g/ha ([2]; MYZUPE, 100 g ai/ha, 5 dat, read-out: % Efficacy): 100%; Emax at 4 g/ha ([6]; SPODFR, 4 g ai/ha, 7 dat, read-out: % Efficacy): 0%; Emax at 20 g/ha ([6]; SPODFR, 20 g ai/ha, 7 dat, read-out: % Efficacy): 100%; Emax at 100 g/ha ([6]; SPODFR, 100 g ai/ha, 7 dat, read-out: % Efficacy): 100%
